Laboratory results taken from patent publication US12077503B2, “Substituted cyclic amides and their use as herbicides” (FMC CORPORATION, priority 2015, dated 2024).

What was measured:
Assay type in all cases: in vivo
[1] = system: Kochia (Kochia scoparia); assay: Test A preemergence
In short: (§1)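 In a loam soil and sand blend, planted seeds got a preemergence directed soil spray, and young plants at the one- to two-leaf stage, 2–10 cm high, got a postemergence application; ~10 d greenhouse hold; injury rated visually, 0 = none, 100 = complete control.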

[2] = system: barnyardgrass (Echinochloa crus-galli); assay: Test A preemergence
In short: as §1

[3] = system: giant foxtail (Setaria faberii); assay: Test A preemergence
In short: as §1

[4] = system: pigweed (Amaranthus retroflexus); assay: Test A preemergence
[5] = system: ragweed (common ragweed, Ambrosia elatior); assay: Test A preemergence
In short: as §1

[6] = system: ryegrass, Italian (Italian ryegrass, Lolium multiflorum); assay: Test A preemergence
In short: as §1

[7] = system: Galium (catchweed bedstraw, Galium aparine); assay: Test A postemergence; conditions: postemergence, 0 to 100 scale (0 no effect, 100 complete control)
In short: as §1

[8] = system: Kochia (Kochia scoparia); assay: Test A postemergence; conditions: postemergence, 0 to 100 scale (0 no effect, 100 complete control)
In short: as §1

[9] = system: barnyardgrass (Echinochloa crus-galli); assay: Test A postemergence; conditions: postemergence, 0 to 100 scale (0 no effect, 100 complete control)
In short: as §1

[10] = system: blackgrass (Alopecurus myosuroides); assay: Test A postemergence; conditions: postemergence, 0 to 100 scale (0 no effect, 100 complete control)
In short: as §1

[11] = system: corn (Zea mays); assay: Test A postemergence; conditions: postemergence, 0 to 100 scale (0 no effect, 100 complete control)
In short: as §1

[12] = system: giant foxtail (Setaria faberii); assay: Test A postemergence; conditions: postemergence, 0 to 100 scale (0 no effect, 100 complete control)
In short: as §1

[13] = system: pigweed (Amaranthus retroflexus); assay: Test A postemergence; conditions: postemergence, 0 to 100 scale (0 no effect, 100 complete control)
In short: as §1

[14] = system: ragweed (common ragweed, Ambrosia elatior); assay: Test A postemergence; conditions: postemergence, 0 to 100 scale (0 no effect, 100 complete control)
In short: as §1

[15] = system: ryegrass, Italian (Italian ryegrass, Lolium multiflorum); assay: Test A postemergence; conditions: postemergence, 0 to 100 scale (0 no effect, 100 complete control)
In short: as §1

[16] = system: wheat (Triticum aestivum); assay: Test A postemergence; conditions: postemergence, 0 to 100 scale (0 no effect, 100 complete control)
In short: as §1

[17] = system: barnyardgrass (Echinochloa crus-galli); assay: Test B flooded paddy test; conditions: Flood, 250 g ai/ha; 0 to 100 scale where 0 is no effect and 100 is complete control; 13 to 15 d
In short: (§2)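 Flooding to 3 cm over soil accompanied treatment, which consisted of adding compound to the standing water around 2-leaf plants; depth was then maintained. Visual assessment versus controls followed at 13 to 15 d (scale 0–100, 0 meaning no effect).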

[18] = system: ducksalad (Heteranthera limosa); assay: Test B flooded paddy test; conditions: Flood, 250 g ai/ha; 0 to 100 scale where 0 is no effect and 100 is complete control; 13 to 15 d
In short: as §2

[19] = system: rice (Oryra sativa); assay: Test B flooded paddy test; conditions: Flood, 250 g ai/ha; 0 to 100 scale where 0 is no effect and 100 is complete control; 13 to 15 d
In short: as §2

[20] = system: sedge, umbrella (small-flower umbrella sedge, Cyperus difformis); assay: Test B flooded paddy test; conditions: Flood, 250 g ai/ha; for Plant response rating, Sedge, Umbrella: 0 to 100 scale where 0 is no effect and 100 is complete control, 13 to 15 d
In short: as §2

[21] = 125 g ai/ha, Preemergence, visual injury after approximately 10 d, 0 to 100 scale where 0 is no effect and 100 is complete control
[22] = 500 g ai/ha, preemergence, 0 to 100 scale, 0 = no effect, 100 = complete control
[23] = 125 g ai/ha, visual rating after approx. 10 d
[24] = 500 g ai/ha, visual injury, approx. 10 d
[25] = 125 g ai/ha, preemergence, visual rating after approx. 10 d, 0 to 100 scale where 0 is no effect and 100 is complete control
[26] = 125 g ai/ha, visual injury after approximately 10 d

| SMILES | Plant response rating, Kochia [1, 21] | Plant response rating, Kochia [1, 22] | Plant response rating, Barnyardgrass [2, 21] | Plant response rating, Barnyardgrass [2, 22] | Plant response rating, Foxtail, Giant [3, 21] | Plant response rating, Foxtail, Giant [3, 22] | Plant response rating, Pigweed [4, 22] | Plant response rating, Ragweed [5, 22] | Plant response rating, Ryegrass, Italian [6, 22] | Plant response rating, Galium [7, 24] | Plant response rating, Kochia [8, 24] | Plant response rating, Barnyardgrass [9, 23] | Plant response rating, Barnyardgrass [9, 24] | Plant response rating, Blackgrass [10, 23] | Plant response rating, Blackgrass [10, 24] | Plant response rating, Corn [11, 24] | Plant response rating, Foxtail, Giant [12, 24] | Plant response rating, Pigweed [13, 24] | Plant response rating, Ragweed [14, 24] | Plant response rating, Ryegrass, Italian [15, 24] | further results |
| --- | --- | --- | --- | --- | --- | --- | --- | --- | --- | --- | --- | --- | --- | --- | --- | --- | --- | --- | --- | --- | --- |
| Cc1ccc(C2CNC(=O)C2C(=O)Nc2ccc(F)cc2F)cc1C(F)(F)F (racemic) [Compound 680] | 0 | 20 | 30 | 90 | 60 | 90 | 0 | 0 | 20 | 20 | 0 | 30 | 60 | 20 | 20 | 20 | 30 | 0 | 0 | 0 | Plant response rating, Pigweed [4, 21]: 0; Plant response rating, Ragweed [5, 21]: 0; Plant response rating, Ryegrass, Italian [6, 21]: 0; Plant response rating, Galium [7, 23]: 0; Plant response rating, Kochia [8, 23]: 0; Plant response rating, Corn [11, 23]: 20; Plant response rating, Foxtail, Giant [12, 23]: 0; Plant response rating, Pigweed [13, 23]: 0; Plant response rating, Ragweed [14, 23]: 0; Plant response rating, Ryegrass, Italian [15, 23]: 0; Plant response rating, Wheat [16, 23]: 0; Plant response rating, Wheat [16, 24]: 0; Plant response rating, Barnyardgrass [17]: 20; Plant response rating, Ducksalad [18]: 30; Plant response rating, Rice [19]: 15; Plant response rating, Sedge, Umbrella [20]: 0 |
| O=C1NCC(c2cccc(Br)c2)C1C(=O)Nc1ccccc1F (racemic) [Compound 686] | 0 | 40 | 90 | 90 | 90 | 90 | 20 | 0 | 20 | 20 | 30 | 90 | 90 | 20 | 40 | 50 | 90 | 20 | 20 | 40 | Plant response rating, Pigweed [4, 25]: 0; Plant response rating, Ragweed [5, 25]: 0; Plant response rating, Ryegrass, Italian [6, 25]: 0; Plant response rating, Galium [7, 26]: 0; Plant response rating, Kochia [8, 26]: 0; Plant response rating, Corn [11, 26]: 0; Plant response rating, Foxtail, Giant [12, 26]: 80; Plant response rating, Pigweed [13, 26]: 0; Plant response rating, Ragweed [14, 26]: 20; Plant response rating, Ryegrass, Italian [15, 26]: 20; Plant response rating, Wheat [16, 26]: 0; Plant response rating, Wheat [16, 24]: 30; Plant response rating, Barnyardgrass [17]: 35; Plant response rating, Ducksalad [18]: 90; Plant response rating, Rice [19]: 0; Plant response rating, Sedge, Umbrella [20]: 0 |
| O=C1NCC(c2cccc(Br)c2)C1C(=O)Nc1ccc(F)c(F)c1F (racemic) [Compound 689] | 20 | 60 | 90 | 90 | 90 | 90 | 40 | 30 | 20 | 50 | 60 | 90 | 90 | 50 | 60 | 80 | 90 | 60 | 50 | 60 | Plant response rating, Pigweed [4, 25]: 20; Plant response rating, Ragweed [5, 25]: 0; Plant response rating, Ryegrass, Italian [6, 25]: 0; Plant response rating, Galium [7, 26]: 50; Plant response rating, Kochia [8, 26]: 30; Plant response rating, Corn [11, 26]: 60; Plant response rating, Foxtail, Giant [12, 26]: 80; Plant response rating, Pigweed [13, 26]: 30; Plant response rating, Ragweed [14, 26]: 0; Plant response rating, Ryegrass, Italian [15, 26]: 30; Plant response rating, Wheat [16, 26]: 20; Plant response rating, Wheat [16, 24]: 60; Plant response rating, Barnyardgrass [17]: 40; Plant response rating, Ducksalad [18]: 98; Plant response rating, Rice [19]: 0; Sedge, Umbrella plant response rating ([20]; scale of 0 to 100 where 0 is no effect and 100 is complete control): 0 |
